Earlier results as cited in PMC4310808 (European journal of medicinal chemistry, 2014).
No end group written: not given here.

Tested on: erythrocytes

For “GIINTLQKYYCRVRGGRCAVLSCLPKEEQIGKCSTRGRKCCRRKK (also: bicyclic or more (positions not given here)) [HβD-3, Human beta defensin-3]”, the “Hemolytic activity at physiological salt concentrations” value is listed as “no hemolytic activity”.
